Test results published in ChEMBL document CHEMBL4346659, “Design, synthesis and evaluation of novel 7H-pyrrolo[2,3-d]pyrimidin-4-amine derivatives as potent, selective and reversible Bruton's tyrosine kinase (BTK) inhibitors for the treatment of rheumatoid arthritis” (Eur J Med Chem, 2019).

What was measured:
[1] = target: T1, Tyrosine-protein kinase BTK (Homo sapiens, UniProt Q06187); assay: Inhibition of BTK (unknown origin) at 1 uM in the presence of ATP by caliper mobility shift assay relative to control
T1 sequence (Q06187 whole entry): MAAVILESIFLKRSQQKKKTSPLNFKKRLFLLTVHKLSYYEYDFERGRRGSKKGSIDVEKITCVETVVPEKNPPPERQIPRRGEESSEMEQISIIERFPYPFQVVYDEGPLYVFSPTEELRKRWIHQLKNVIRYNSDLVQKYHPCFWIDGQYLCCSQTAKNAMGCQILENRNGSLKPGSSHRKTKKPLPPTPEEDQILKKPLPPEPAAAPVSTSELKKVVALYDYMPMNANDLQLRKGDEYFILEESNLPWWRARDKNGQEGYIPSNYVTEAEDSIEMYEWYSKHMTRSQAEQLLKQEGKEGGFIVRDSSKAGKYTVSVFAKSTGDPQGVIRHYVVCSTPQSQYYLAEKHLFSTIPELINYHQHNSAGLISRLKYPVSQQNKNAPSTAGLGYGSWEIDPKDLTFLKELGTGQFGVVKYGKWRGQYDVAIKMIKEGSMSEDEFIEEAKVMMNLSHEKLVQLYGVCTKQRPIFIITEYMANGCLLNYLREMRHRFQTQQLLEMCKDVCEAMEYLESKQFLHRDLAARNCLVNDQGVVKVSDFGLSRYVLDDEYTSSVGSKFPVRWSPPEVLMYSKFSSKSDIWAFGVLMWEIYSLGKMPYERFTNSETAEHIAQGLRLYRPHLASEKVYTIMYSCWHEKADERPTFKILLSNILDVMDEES

[2] = target: T1, Tyrosine-protein kinase BTK; assay: Inhibition of BTK (unknown origin) at 0.1 uM in the presence of ATP by caliper mobility shift assay relative to control
[3] = test system: Ramos; assay: Antiproliferative activity against human Ramos cells; assay type: functional, cell-based; conditions: Homo sapiens, Ramos
[4] = test system: JeKo-1; assay: Antiproliferative activity against human JeKo1 cells; assay type: functional, cell-based; conditions: Homo sapiens, JeKo-1
[5] = test system: Daudi; assay: Antiproliferative activity against human Daudi cells; assay type: functional, cell-based; conditions: Homo sapiens, Daudi
[6] = target: T1, Tyrosine-protein kinase BTK; assay: Inhibition of BTK (unknown origin) in the presence of ATP by caliper mobility shift assay

SMILES	inhibition [1] [%]	inhibition [2] [%]	IC50 [3] [µM]	IC50 [5] [µM]	IC50 [6] [µM]	IC50 [4] [µM]
Nc1ncnc2c1c(-c1ccc3c(c1)OCO3)cn2CC1CCCO1 (centres undefined)	21.8	-6.11	24.2	20.9		17.1
CN(C)C(=O)N1CC[C@H](n2cc(-c3ccc4c(c3)OCO4)c3c(N)ncnc32)C1	42.6	1.87	27.7	14.6		24.2
Nc1ncnc2c1c(-c1ccc3c(c1)OCO3)cn2C[C@@H]1CCCN1C[C@@H]1CO1	47.6	13.5	29	19		21.6
Nc1ncnc2c1c(-c1ccc(Oc3ccccc3)cc1)cn2C[C@H]1CCCN1C(CO)CO	54.7	18.3	15.3	28.2		14.5
Nc1ncnc2c1c(-c1ccc3c(c1)OCO3)cn2[C@H]1CCN(C(=O)c2ccccn2)C1	28.1	1.45	20.7	12.3		19.5
Nc1ncnc2c1c(-c1cccc(-n3ncc4ccccc4c3=O)c1)cn2[C@H]1CCN(C[C@@H]2CO2)C1	17.5	3.41	15.2	14.6		15.2
Nc1ncnc2c1c(-c1ccc3c(c1)OCO3)cn2[C@H]1CCN(CCCO)C1	22.4	8.43	20.9	29.6		3.13
Nc1ncnc2c1c(-c1ccc3c(c1)OCO3)cn2C[C@H]1CCCN1C[C@@H]1CO1	94.5	81.6	18	8.97	0.0089	4.83
Nc1ncnc2c1c(-c1ccc3c(c1)OCO3)cn2C[C@H]1CCCN(C[C@@H]2CO2)C1	70.3	34.7	15.1	10.6		7.96
Nc1ncnc2c1c(-c1ccc3c(c1)OCO3)cn2C[C@H]1CCN(C[C@@H]2CO2)C1	63.7	23.9	27	15		7.25
NC(=O)CN1CC[C@H](n2cc(-c3ccc4c(c3)OCO4)c3c(N)ncnc32)C1	48.6	12.6	13.3	3.45	> 0.5	4.98
Nc1ncnc2c1c(-c1ccc3c(c1)OCO3)cn2[C@H]1CCN(C(=O)c2ccccc2)C1	29.4	37.1	35.2	8.26		17

Compounds with a lower IC50 [3], results first:

inhibition [1] [%]	inhibition [2] [%]	IC50 [3] [µM]	IC50 [5] [µM]	IC50 [6] [µM]	SMILES	IC50 [4] [µM]
44.1	5.71	9.92	25.5		CCOC(=O)C(C)N1CC[C@H](n2cc(-c3ccc4c(c3)OCO4)c3c(N)ncnc32)C1 (some centres undefined)	1.21
30.2	6.07	6.6	11.6		Nc1ncnc2c1c(-c1ccc3c(c1)OCO3)cn2[C@H]1CCN(Cc2cc(F)cc(F)c2)C1	1.69
37.2	1.64	7.79	16.6		Nc1ncnc2c1c(-c1ccc3c(c1)OCO3)cn2[C@H]1CCN(S(=O)(=O)C2CC2)C1	11.8
93.5	87.6	12.5	2.39	0.0366	Nc1ncnc2c1c(-c1ccc3c(c1)OCO3)cn2[C@H]1CCN(C[C@@H]2CO2)C1	3.41
62.9	17.4	1.65	4.21		Nc1ncnc2c1c(-c1cc3ccccc3o1)cn2[C@H]1CCN(C[C@H]2CO2)C1	0.63
22.2	2.29	4.82	5.97		CC(C)(C)c1ccc(C(=O)Nc2cccc(-c3cn([C@H]4CCN(C[C@@H]5CO5)C4)c4ncnc(N)c34)c2)cc1	2.54
47.1	12.7	7.97	10.9		C[C@@H]1C[C@H](n2cc(-c3ccc4c(c3)OCO4)c3c(N)ncnc32)CN1C[C@@H]1CO1	4.61
59.9	14.2	10.9	12.5		Nc1ncnc2c1c(-c1ccc3c(c1)OCO3)cn2CC1CCN(C[C@@H]2CO2)CC1	15.3
42.6	1.81	2.11	5.02		Nc1ncnc2c1c(-c1ccc3c(c1)OCO3)cn2C1=CCN(C[C@@H]2CO2)CC1	12.8
98.1	79.1	6.71	5.48	0.0311	Nc1ncnc2c1c(-c1ccc(Oc3ccccc3)cc1)cn2[C@H]1CCN(C[C@@H]2CO2)C1	1.48
3	0.01	4.41	13.2		CC(C)(C)c1ccc(CN2CC[C@H](n3cc(-c4ccc5c(c4)OCO5)c4c(N)ncnc43)C2)cc1	2.07
